From patent publication US8815878B1, “Spiro hemiaminals for treating viral diseases” (NovaDrug, LLC, priority 2010, dated 2014)

Test system: Huh7-1 cells
Test: HCV Induced Cytotoxicity Test (Promega CytoTox 96 LDH release)
Type: cell-based, human
Settings: 5 day HCV-infected Huh7-1 cultures
Description: Initially, 6×10^3 Huh7-1 cells are incubated overnight in each well of collagen-coated BioCoat 96-well plates (BD Biosciences, Bedford, Mass.) in 0.2 ml 10% medium composed of Dulbecco's modified Eagle's medium supplemented with 10% fetal bovine serum. Subsequently, at 2 day intervals, the cultures are replenished with fresh 0.2 ml 10% medium. After the cultures become confluent, they continue to be replenished at 2 day intervals with fresh 0.2 ml 10% medium that also includes 1% dimethyl sulfoxide (DMSO). After 20 days of these replenishments, the Huh7-1 cultures are incubated with fresh 1% medium (same as 10% medium except that the serum level is 1%) containing HCV at a multiplicity of infection (MOI) of 0.05 focus forming units (ffu)/cell. The HCV (JFH-1 wt Huh7) stock titer is 1.5×10^5 ffu/ml. The next day (day 1 post-infection) and 2 days later (day 3 post-infection) the media are replenished with fresh 1% medium containing the test compounds dissolved in DMSO. On the 5th day of treatment with the compounds, cell lysates are collected for RNA isolation and Real Time-quantitative Reverse Transcription Polymerase Chain Reaction (RT-qPCR) and culture media are collected for cytotoxicity analysis.
HCV Induced Cytotoxicity Test. To determine whether the compounds described herein are cytotoxic at the tested doses used, the Promega CytoTox 96 Non-Radioactive Cytotoxicity Assay kit (Promega, Madison, Wis.) is used. This kit measures lactate dehydrogenase (LDH) levels in the culture medium, which is released from cells due to plasma membrane integrity loss or necrosis. For this test, 50 uL samples of culture medium are collected from the same 5 day cultures used to examine the RNA levels shown previously.

[1] = concentration ranges of 2.5 to 20 μM

SMILES | toxicity in the assay (LDH levels in the culture medium) (at 25 μM) | toxicity in the assay (LDH levels in the culture medium) [1]
Cc1ccc2occ(CN3C[C@H]4CC[C@]5(NC(=O)c6ccccc6N5)[C@H]4C3)c(=O)c2c1 [Example 3] | limited toxicity | little to no toxicity
O=C1N[C@]2(CC[C@@H]3CN(Cc4cnc(N5CCOCC5)nc4)C[C@@H]32)Nc2ccccc21 [Example 4] | – | little to no toxicity
O=C1N[C@]2(CC[C@@H]3CN(Cc4cc5c(cc4Cl)OCO5)C[C@@H]32)Nc2ccccc21 [Example 6] | limited toxicity | little to no toxicity
